From US8816082B2, “Heterocyclyl-pyridinyl-based biphosphonic acid, pharmaceutically acceptable salt thereof, composition thereof and method of use thereof” (The Royal Institution for the Advancement of …, priority 2010, dated 2014)
Where two headings read alike, the source gives them in different places.

Columns and labels:
hFPPS [1] = molecular target: T1, hFPPS (Homo sapiens, UniProt P14324); assay: hFPPS inhibition, high throughput mode at fixed concentration, more optimized assay (purer hFPPS, 10 min pre-incubation); conditions: read-out: % Inhibition at 1 μM
T1 sequence (P14324 1-419): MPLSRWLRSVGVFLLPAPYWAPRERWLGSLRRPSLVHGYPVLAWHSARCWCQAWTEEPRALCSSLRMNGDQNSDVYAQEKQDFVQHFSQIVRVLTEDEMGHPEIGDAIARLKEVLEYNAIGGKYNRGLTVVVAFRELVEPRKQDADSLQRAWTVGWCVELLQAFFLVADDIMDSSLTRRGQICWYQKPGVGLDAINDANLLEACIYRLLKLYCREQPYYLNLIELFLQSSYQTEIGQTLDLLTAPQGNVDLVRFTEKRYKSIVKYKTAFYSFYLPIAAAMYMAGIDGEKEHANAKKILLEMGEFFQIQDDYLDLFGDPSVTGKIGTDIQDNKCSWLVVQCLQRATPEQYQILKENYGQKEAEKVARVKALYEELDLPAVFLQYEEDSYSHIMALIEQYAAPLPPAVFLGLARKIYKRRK

[2] = test system: multiple myeloma JJN3 cells; assay: Anti-proliferation assay (MTT), multiple myeloma JJN3 cells; format: cell-based; conditions: Homo sapiens
Experimental: (§1) In addition, select compounds were tested in anti-proliferation assays using multiple myeloma JJN3 cells and breast cancer MCF-7 cells. Cells were cultured with either an hFPPS inhibitor (i.e. representative Examples 1 to 42) at increasing concentrations (from 10 nM to 100 μM) or a vehicle control.

[3] = test system: breast cancer MCF-7 cells; assay: Anti-proliferation assay (MTT), breast cancer MCF-7 cells; format: cell-based; conditions: Homo sapiens, MCF7, read-out: % inhibition of breast cancer MCF-7 cell proliferation at 50 μM inhibitor, 24 h, vs vehicle control, averages of four determinations
Experimental: as §1

hFPPS [4] = molecular target: T1, hFPPS; assay: hFPPS IC50 determination under more optimised conditions (Table 4)
[5] = molecular target: T2, human farnesyl pyrophosphate synthase (hFPPS) (Homo sapiens, UniProt P14324); assay: In vitro enzymatic inhibition assay for hFPPS, initial screening conditions (partly purified enzyme, 5 min pre-incubation); format: biochemical
T2 sequence (P14324 1-419): T1 sequence (P14324 1-419)

[6] = test system: NCI-H460 cells (lung large cell carcinoma); assay: Cell growth inhibition assay (MTT), NCI-H460 cells; format: cell-based; conditions: Homo sapiens, 96 h, 4 days, preliminary data, read-out: EC50 (inhibition of cell proliferation)
[7] = JJN-3, read-out: % inhibition of MM JJN3 cell proliferation at 50 μM inhibitor, 24 h, vs vehicle control, averages of four determinations
[8] = JJN-3, read-out: % inhibition of MM JJN3 cell proliferation at 50 μM inhibitor, 48 h, vs vehicle control, averages of four determinations

| Compound | inhibition at 1 µM (hFPPS [1]) | inhibition at 50 µM [2, 7] | inhibition at 50 µM [2, 8] | inhibition at 50 µM [3] | other results |
| --- | --- | --- | --- | --- | --- |
| O=P(O)(O)C(Nc1cc(-c2ccc(Cl)cc2)ccn1)P(=O)(O)O [Compound 40] | 90% |  |  |  |  |
| O=P(O)(O)C(Nc1ncccc1Br)P(=O)(O)O [Compound 36] |  | 15% | 26% | 25% | IC50 (hFPPS [4]): 180 nM |
| O=P(O)(O)C(F)(Cc1cncc(-c2ccc3[nH]ncc3c2)c1)P(=O)(O)O [Compound 7] |  | 28% | 19% | 20% | IC50 [5]: 640 nM; IC50 (hFPPS [4]): 150 nM |
| O=P(O)(O)C(Nc1cccc(-c2ccccc2)n1)P(=O)(O)O [Compound 12] | 35% |  |  |  |  |
| O=P(O)(O)C(O)(Cc1cccnc1)P(=O)(O)O [Risedronate, reference compound] |  | 9% | 17% | 16% | EC50 [6]: 80000 to 100000 nM |

Now from value to molecule, other results behind:

| inhibition at 1 µM (hFPPS [1]) | Compound | inhibition at 50 µM [2, 7] | inhibition at 50 µM [2, 8] | inhibition at 50 µM [3] | other results |
| --- | --- | --- | --- | --- | --- |
| 65% | O=P(O)(O)C(Nc1cc(-c2ccc3ccccc3c2)ccn1)P(=O)(O)O [Compound 26] |  |  |  |  |
| 45% | O=P(O)(O)C(Nc1cc(-c2ccc3[nH]ncc3c2)ccn1)P(=O)(O)O [Compound 14] |  |  |  |  |
| 95% | O=P(O)(O)C(Nc1cc(-c2ccc(F)cc2)ccn1)P(=O)(O)O [Compound 42] |  |  |  |  |
